# Patent publication US8426436B2, “Heterocyclic cyclopamine analogs and methods of use thereof” (Infinity Discovery, Inc., priority 2007, dated 2013)
# pEC50: −log10 of the molar value.
# Experiments:
# Hedgehog pathway = assay: C3H10T1/2 osteoblast differentiation assay (alkaline phosphatase readout, Shh-induced); type: cell-based; details: Mus musculus, C3H 10T1/2; C3H10T1/2 cells, sonic Hedgehog 250 ng/ml, AP activity normalized to total protein; approximate EC50 for inhibition
# Text: Hedgehog pathway specific cancer cell killing effects may be ascertained using the following assay. C3H10T1/2 cells differentiate into osteoblasts when contacted with the sonic hedgehog peptide (Shh-N). Upon differentiation, these osteoblasts produce high levels of alkaline phosphatase (AP) which can be measured in an enzymatic assay (Nakamura, et al., BBRC (1997) 237:465). Compounds that block the differentiation of C3H10T1/2 into osteoblasts (a Shh dependent event) can therefore be identified by a reduction in AP production (van der Horst, et al., Bone (2003) 33:899). The assay details are described below. The results approximate (EC50 for inhibition) of the differentiation assay is shown below in Table 1.
# Mouse embryonic mesoderm fibroblasts C3H10T1/2 cells (obtained from ATCC) were cultured in Basal MEM Media (Gibco/Invitrogen) supplemented with 10% heat inactivated FBS (Hyclone), 50 units/ml penicillin and 50 ug/ml streptomycin (Gibco/Invitrogen) at 37° C. with 5% CO2 in air atmosphere.
# Alkaline Phosphatase Assay C3H10T1/2 cells were plated in 96 wells with a density of 8×10^3 cells/well. Cells were grown to confluence (72 hrs). After sonic Hedgehog (250 ng/ml), and/or compound treatment, the cells were lysed in 110 μL of lysis buffer (50 mM Tris pH 7.4, 0.1% TritonX100), plates were sonicated and lysates spun through 0.2 μm PVDF plates (Corning). 40 μL of lysates was assayed for AP activity in alkaline buffer solution (Sigma) containing 1 mg/ml p-Nitrophenyl Phosphate. After incubating for 30 min at 37° C., the plates were read on an Envision plate reader at 405 nm. Total protein was quantified with a BCA protein assay kit from Pierce according to manufacturer's instructions. AP activity was normalized against total protein.
# Gli-1 mRNA = assay: Ptch1/Hic1 medulloblastoma subcutaneous allograft model, Gli-1 mRNA expression; type: in vivo, mouse; details: single oral (PO) dose, subcutaneously implanted tumors, 8 hours post dose
# Protocol: (§1) The activity of Compound 10 was evaluated in a transgenic mouse model of medulloblastoma. Mice that are heterozygous for loss of function mutations in the tumor suppressors Patched1 (Ptch1) and Hypermethylated in Cancer (Hic1) develop spontaneous medulloblastoma. […] When passaged as subcutaneous allografts, these tumors grow aggressively and are Hedgehog pathway-dependent. This model was employed to evaluate the efficacy of orally administered Compound, and to correlate activity with drug exposure in plasma and tumors.
# BxPC-3 cells = assay: BxPC-3 human pancreatic subcutaneous tumor model, tumor volume; type: in vivo, mice; details: BxPC-3 subcutaneous, orally 40 mg/kg/day, 25 daily doses, p=0.0437
# Protocol: (§2) The activity of Compound 10 was further tested in a human pancreatic model: BxPC-3 cells were implanted subcutaneously into the flanks of the right legs of mice. On day 42 post-tumor implant, the mice were randomized into two groups to receive either Vehicle (30% HPBCD) or Compound 10. Compound 10 was administered orally at 40 mg/kg/day. […] At the end of the study, the tumors were harvested 4 hours post the last dose to evaluate an on target response by q-RT-PCR analysis of the HH pathway genes.
# murine Gli-1 mRNA = assay: q-RT-PCR of HH pathway genes in harvested BxPC-3 tumors, murine Gli-1; type: in vivo; details: BxPC-3 tumors harvested 4 hours post last dose, 40 mg/kg/day oral
# Protocol: as §2
# murine Gli-1 = assay: Gli-1 mRNA analysis of PANC-1 tumor tissue, murine Gli-1; type: in vivo; details: RNA isolated 24 hours after final dose
# Protocol: (§3) The activity of Compound 10 was also tested in another model of pancreatic cancer in which the PANC-1 pancreatic cancer cells were implanted into the orthotopic site, that is, directly into the pancreas. At the end of 5 weeks of dosing, 40 mg/kg/day (a total of 35 doses), tumor growth was monitored by weighing the tumors as they were removed from the animals. There was a statistically significant (p=0.00014) difference between the Compound 10 and vehicle treated animals which was seen as a 47% decrease in tumor weight in the Compound 10 treated animals. In addition, tumor tissue was harvested and RNA was isolated 24 hours after the final dose of Compound 10.
# human Gli-1 mRNA = assay: Gli-1 mRNA analysis of PANC-1 tumor tissue, human Gli-1; type: in vivo; details: RNA isolated 24 hours after final dose
# Protocol: as §3
# human Gli-1 = assay: q-RT-PCR of HH pathway genes in harvested BxPC-3 tumors, human Gli-1; type: in vivo; details: BxPC-3 tumors harvested 4 hours post last dose, 40 mg/kg/day oral
# Protocol: as §2
# [1] = system: PANC-1 pancreatic cancer cells; assay: PANC-1 orthotopic pancreatic cancer model, tumor weight; type: in vivo; details: 40 mg/kg/day, 5 weeks (35 doses), p=0.00014
# Protocol: as §3
# medulloblastoma = assay: Ptch1/Hic1 medulloblastoma subcutaneous allograft model, tumor growth; type: in vivo, mouse
# Protocol: as §1
# The approximate effective daily oral dose for 50% inhibition of tumor growth (ED50) is […] 8 mg/kg.
Structure (SMILES),pEC50 (Hedgehog pathway),other results
CC1=C2C[C@H]3[C@@H](CC[C@@H]4Cc5nocc5C[C@@]43C)[C@@H]2CC[C@@]2(C1)O[C@@H]1C[C@H](C)CN[C@H]1[C@H]2C [Compound 1],7.00 to 7.70,
CC1=C2C[C@H]3[C@@H](CC[C@@H]4Cc5n[nH]cc5C[C@@]43C)[C@@H]2CC[C@@]2(C1)O[C@@H]1C[C@H](C)CN[C@H]1[C@H]2C [Compound 10],> 7.70,"HH pathway regulation measured by Gli-1 mRNA expression (Gli-1 mRNA): dose-dependent down-regulation; reduction of tumor volume growth compared to vehicle control (BxPC-3 cells): 37%; murine Gli-1 mRNA levels vs vehicle (murine Gli-1 mRNA): robust down-regulation; murine Gli-1 modulation (murine Gli-1): did reveal modulation; human Gli-1 mRNA modulation (human Gli-1 mRNA): no modulation; human Gli-1 modulation (q-RT-PCR) (human Gli-1): no modulation; decrease in tumor weight vs vehicle [1]: 47%; ED50 (medulloblastoma; Mus musculus, daily oral dosing, read-out: approximate effective daily oral dose for 50% inhibition of tumor growth (ED50)): ~8 mg/kg; tumor growth effect (medulloblastoma; daily (QD) PO administration): dose dependent inhibition of tumor growth, with frank tumor regression seen at higher doses; long term survival following cessation of treatment (medulloblastoma; treated QD for 21 days): > 19 days; tumor re-growth after cessation of treatment (medulloblastoma; treated QD for 21 days): little to no tumor re-growth"
CC1=C2C[C@H]3[C@@H](CC[C@@H]4Cc5nn(C)cc5C[C@@]43C)[C@@H]2CC[C@@]2(C1)O[C@@H]1C[C@H](C)CN[C@H]1[C@H]2C [Compound 11],7.00 to 7.70,
CC1=C2C[C@H]3[C@@H](CC[C@@H]4Cc5nn(S(C)(=O)=O)cc5C[C@@]43C)[C@@H]2CC[C@@]2(C1)O[C@@H]1C[C@H](C)CN[C@H]1[C@H]2C [Compound 12],< 7.00,
CC1=C2C[C@H]3[C@@H](CC[C@@H]4Cc5n[nH]cc5C[C@@]43C)[C@@H]2CC[C@@]2(C1)O[C@@H]1C[C@H](C)CN(C)[C@H]1[C@H]2C [Compound 13],7.00 to 7.70,
CC(=O)N1C[C@@H](C)C[C@H]2O[C@]3(CC[C@@H]4C(=C(C)C3)C[C@H]3[C@H]4CC[C@@H]4Cc5n[nH]cc5C[C@@]43C)[C@H](C)[C@@H]21 [Compound 14],7.00 to 7.70,
CC1=C2C[C@H]3[C@@H](CC[C@@H]4Cc5n[nH]c(C(F)(F)F)c5C[C@@]43C)[C@@H]2CC[C@@]2(C1)O[C@@H]1C[C@H](C)CN[C@H]1[C@H]2C [Compound 15],< 7.00,
C[C@@H]1CN[C@H]2[C@@H](C)[C@@]3(CC[C@@H]4C(C[C@H]5[C@H]4CC[C@@H]4Cc6[nH]ncc6C[C@@]45C)C3)O[C@@H]2C1 (stereo partly shown) [Compound 17],7.00 to 7.70,
CC1=C2C[C@H]3[C@@H](CC[C@@H]4Cc5[nH]ncc5C[C@@]43C)[C@@H]2CC[C@]12O[C@@H]1C[C@H](C)CN[C@H]1[C@H]2C [Compound 19],< 7.00,
CC1=C2C[C@H]3[C@@H](CC[C@@H]4Cc5n[nH]cc5C[C@@]43C)[C@@H]2CC[C@@]2(C1)O[C@@H]1C[C@H](C)CN(O)[C@H]1[C@H]2C [Compound 31],7.00 to 7.70,
CC1=C2C[C@H]3[C@@H](CC[C@@H]4Cc5[nH][nH]c(=O)c5C[C@@]43C)[C@@H]2CC[C@@]2(C1)O[C@@H]1C[C@H](C)CN[C@H]1[C@H]2C [Compound 32],< 7.00,
CC1=C2C[C@H]3[C@@H](CC[C@@H]4Cc5[nH]ncc5C[C@@]43C)[C@@H]2CC[C@@]2(C1)O[C@@H]1C[C@H](C)CN(S(C)(=O)=O)[C@H]1[C@H]2C [Compound 40],7.00 to 7.70,
CC1=C2C[C@H]3[C@@H](CC[C@@H]4Cc5nn(S(C)(=O)=O)cc5C[C@@]43C)[C@@H]2CC[C@@]2(C1)O[C@@H]1C[C@H](C)CN(S(C)(=O)=O)[C@H]1[C@H]2C [Compound 41],< 7.00,
CC1=C2C[C@H]3[C@@H](CC[C@@H]4Cc5nc(C)sc5C[C@@]43C)[C@@H]2CC[C@@]2(C1)O[C@@H]1C[C@H](C)CN[C@H]1[C@H]2C [Compound 42],< 7.00,
CC1=C2C[C@H]3[C@@H](CC[C@@H]4Cc5nn(S(=O)(=O)c6ccc(C)cc6)cc5C[C@@]43C)[C@@H]2CC[C@@]2(C1)O[C@@H]1C[C@H](C)CN[C@H]1[C@H]2C [Compound 43],< 7.00,
CC1=C2C[C@H]3[C@@H](CC[C@@H]4Cc5[nH]ncc5C[C@@]43C)[C@@H]2CC[C@@]2(C1)O[C@@H]1C[C@H](C)CN(S(N)(=O)=O)[C@H]1[C@H]2C [Compound 44],7.00 to 7.70,
CC1=C2C[C@H]3[C@@H](CC[C@H]4Cc5[nH]ncc5C[C@@]43C)[C@@H]2CC[C@@]2(C1)O[C@@H]1C[C@H](C)CN[C@H]1[C@H]2C [Compound 45],< 7.00,
